Assay results as given in PubChem BioAssay (NCI).
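Briefly, cells in 96-well plates were exposed to five compound concentrations for 48 h, and endpoints were estimated by linear interpolation. TGI marks complete inhibition of growth.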

Experiments:
Experiment in all cases: NCI anticancer screen, dose series, 48 h
RXF 393 renal = system: RXF 393 renal
SN12C renal = system: SN12C renal
NCI-H226 lung = system: NCI-H226 lung
SF-539 CNS = system: SF-539 CNS
SNB-75 CNS = system: SNB-75 CNS
HCT-15 colon = system: HCT-15 colon
MDA-N = system: MDA-N
OVCAR-5 ovarian = system: OVCAR-5 ovarian
SK-OV-3 ovarian = system: SK-OV-3 ovarian
T-47D breast = system: T-47D breast
HOP-62 NSCLC = system: HOP-62 NSCLC
KM12 colon = system: KM12 colon
SK-MEL-2 melanoma = system: SK-MEL-2 melanoma
A549 NSCLC = system: A549 NSCLC
U251 CNS = system: U251 CNS
NCI/ADR-RES ovarian = system: NCI/ADR-RES ovarian
HCT-116 colon = system: HCT-116 colon
K-562 leukemia = system: K-562 leukemia
RPMI-8226 leukemia = system: RPMI-8226 leukemia
IGROV1 ovarian = system: IGROV1 ovarian
HL-60(TB) leukemia = system: HL-60(TB) leukemia
OVCAR-8 ovarian = system: OVCAR-8 ovarian
DU-145 prostate = system: DU-145 prostate
PC-3 prostate = system: PC-3 prostate
MCF7 breast = system: MCF7 breast
MALME-3M melanoma = system: MALME-3M melanoma
UO-31 renal = system: UO-31 renal
CCRF-CEM leukemia = system: CCRF-CEM leukemia
COLO 205 colon = system: COLO 205 colon
MDA-MB-435 = system: MDA-MB-435
CAKI-1 renal = system: CAKI-1 renal
SW-620 colon = system: SW-620 colon
UACC-62 melanoma = system: UACC-62 melanoma
SF-295 CNS = system: SF-295 CNS
TK-10 renal = system: TK-10 renal
NCI-H23 lung = system: NCI-H23 lung
OVCAR-3 ovarian = system: OVCAR-3 ovarian
M14 melanoma = system: M14 melanoma
A498 renal = system: A498 renal
SNB-19 CNS = system: SNB-19 CNS
SK-MEL-28 melanoma = system: SK-MEL-28 melanoma
HS 578T breast = system: HS 578T breast
NCI-H460 lung = system: NCI-H460 lung
SF-268 CNS = system: SF-268 CNS
SR leukemia = system: SR leukemia
MOLT-4 leukemia = system: MOLT-4 leukemia
LOX IMVI melanoma = system: LOX IMVI melanoma
786-0 renal = system: 786-0 renal
MDA-MB-231 breast = system: MDA-MB-231 breast
SK-MEL-5 melanoma = system: SK-MEL-5 melanoma
BT-549 breast = system: BT-549 breast
ACHN renal = system: ACHN renal
HCC-2998 colon = system: HCC-2998 colon
NCI-H522 lung = system: NCI-H522 lung
UACC-257 melanoma = system: UACC-257 melanoma
HT29 colon = system: HT29 colon

Measured: TGI

c1ccc([P+](c2ccccc2)(c2ccccc2)c2ccc([P+](c3ccccc3)(c3ccccc3)c3ccccc3)c3ccccc23)cc1
> 100 µM: all assays above
